# Results: patent US7419966B2, “[5-carboxamido or 5-fluoro]-[2′,3′-unsaturated or 3′-modified]-pyrimidine nucleosides” (Emory University, priority 1995, dated 2008)
# Where two headings read alike, the source gives them in different places.
# What was measured:
# Assay type in all cases: cell-based
# CEM cells = test: Toxicity in CEM cells
# various cell lines = test: Toxicity in various cell lines (PBM, CEM, Vero); conditions: for toxicity, in words: PBM, CEM and Vero cells
# HIV-1 (strain LAV) = test: Anti-HIV-1 activity in PHA-stimulated human PBM cells (reverse transcriptase readout); conditions: for antiviral activity against HIV, in words: text b71, b85
# Description: The ability of nucleosides to inhibit HIV can be measured by various experimental techniques. The technique used herein, and described in detail below, measures the inhibition of viral replication in phytohemagglutinin (PHA) stimulated human peripheral blood mononuclear (PBM) cells infected with HIV-1. (strain LAV). The amount of virus produced is determined by measuring the virus-coded reverse transcriptase enzyme. The amount of enzyme produced is proportional to the amount of virus produced.
# Three-day-old phytohemagglutinin-stimulated PBM cells (10^6 cells/ml) from hepatitis B and HIV-1 seronegative healthy donors were infected with HIV-1 (strain LAV) at a concentration of about 100 times the 50% tissue culture infectious dose (TICD 50) per ml and cultured in the presence and absence of various concentrations of antiviral compounds.
# Approximately one hour after infection, the medium, with the compound to be tested (2 times the final concentration in medium) or without compound, was added to the flasks (5 ml; final volume 10 ml). AZT was used as a positive control.
# The cells were exposed to the virus (about 2×10^5 dpm/ml, as determined by reverse transcriptase assay) and then placed in a CO2 incubator. HIV-1 (strain LAV) was obtained from the Center for Disease Control, Atlanta, Ga. The methods used for culturing the PBM cells, harvesting the virus and determining the reverse transcriptase activity were those described by McDougal et al. (J. Immun. Meth. 76, 171-183, 1985) and Spira et al. (J. Clin. Meth. 25, 97-99, 1987), except that fungizone was not included in the medium (see Schinazi, et al., Antimicrob. Agents Chemother. 32, 1784-1787 (1988); Id., 34:1061-1067 (1990)).
# On day 6, the cells and supernatant were transferred to a 15 ml tube and centrifuged at about 900 g for 10 minutes. Five ml of supernatant were removed and the virus was concentrated by centrifugation at 40,000 rpm for 30 minutes (Beckman 70.1 Ti rotor). The solubilized virus pellet was processed for determination of the levels of reverse transcriptase. Results are expressed in dpm/ml of sampled supernatant. Virus from smaller volumes of supernatant (1 ml) can also be concentrated by centrifugation prior to solubilization and determination of reverse transcriptase levels.
# [1] = test system: uninfected human PBM cells; test: Toxicity in mitogen-stimulated uninfected human PBM cells (cell count, trypan blue exclusion)
# Description: Mitogen stimulated uninfected human PBM cells (3.8×10^5 cells/ml) were cultured in the presence and absence of drug under similar conditions as those used for the antiviral assay described above. The cells were counted after 6 days using a hemacytometer and the trypan blue exclusion method, as described by Schinazi et al., Antimicrobial Agents and Chemotherapy, 22(3), 499 (1982). […]
# HSV-1F = test: Anti-HSV-1 activity in Vero cells; conditions: Table 1
# Vero cells = test: Toxicity in Vero cells
# [2] = test system: hepatitis B virus in transfected HepG-2 (2.2.15) cells; test: Anti-HBV activity in 2.2.15 cell cultures (HBV virion DNA and replicative intermediates); conditions: for EC50 / EC90: day 9; for activity against HBV, in words: text b71, b81
# Description: The ability of the active compounds to inhibit the growth of virus in 2.2.15 cell cultures (HepG2 cells transformed with hepatitis virion) can be evaluated as described in detail below.
# A summary and description of the assay for antiviral effects in this culture system and the analysis of HBV DNA has been described (Korba and Milman, 1991, Antiviral Res., 15:217). The antiviral evaluations were performed on two separate passages of cells. All wells, in all plates, were seeded at the same density and at the same time.
# Due to the inherent variations in the levels of both intracellular and extracellular HBV DNA, only depressions greater than 3.5-fold (for HBV virion DNA) or 3.0-fold (for HBV DNA replication intermediates) from the average levels for these HBV DNA forms in untreated cells are considered to be statistically significant [P<0.05]. The levels of integrated HBV DNA in each cellular DNA preparation (which remain constant on a per cell basis in these experiments) were used to calculate the levels of intracellular HBV DNA forms, thereby ensuring that equal amounts of cellular DNA were compared between separate samples.
# Typical values for extracellular HBV virion DNA in untreated cells ranged from 50 to 150 pg/ml culture medium (average of approximately 76 pg/ml). Intracellular HBV DNA replication intermediates in untreated cells ranged from 50 to 100 pg/μg cell DNA (average approximately 74 pg/μg cell DNA). In general, depressions in the levels of intracellular HBV DNA due to treatment with antiviral compounds are less pronounced, and occur more slowly, than depressions in the levels of HBV virion DNA (Korba and Milman, 1991, Antiviral Res., 15:217).
# [3] = Toxicity in 2.2.15 cells by neutral red dye uptake; conditions: human, 2.2.15 cells (HepG2 cells transformed with hepatitis virion), Table 2; 2.2.15 cells; read-out: Cytotoxicity IC50 ± SD
# Description: (§1) Toxicity analyses were performed to assess whether any observed antiviral effects were due to a general effect on cell viability. The method used herein was the measurement of the uptake of neutral red dye, a standard and widely used assay for cell viability in a variety of virus-host systems, including HSV and HIV. Toxicity analyses were performed in 96-well flat bottomed tissue culture plates. Cells for the toxicity analyses were cultured and treated with test compounds with the same schedule as described for the antiviral evaluations below. Each compound was tested at 4 concentrations, each in triplicate cultures (wells “A”, “B”, and “C”). Uptake of neutral red dye was used to determine the relative level of toxicity. The absorbance of internalized dye at 510 nm (Asin) was used for the quantitative analysis. Values are presented as a percentage of the average Asin values in 9 separate cultures of untreated cells maintained on the same 96-well plate as the test compounds. Dye uptake in the 9 control cultures on plate 5 ranged from 91.6% to 110.4%, and on plate 6 from 96.6% to 109%.
# [4] = test system: 2.2.15 cells (HepG2 cells transformed with hepatitis virion); test: Toxicity in 2.2.15 cells by neutral red dye uptake; conditions: for IC50: 2.2.15 cells, read-out: Cytotoxicity IC50 ± SD; for toxicity, in words: HBV assay
# Description: as §1
# HIV-2ROD2 = test: Anti-HIV-2 activity in PBMC
# SIVSMM = test: Anti-SIV activity in PBMC
# [5] = Table 1, uninfected human PBM cells, 6 days
# [6] = Table 1, HIV-1LAI, human PBM cells, estimated 10% error factor, read-out: Anti-HIV-1 in PBMC EC50
# [7] = Table 3, HIV-1LAI, estimated 10% error factor, read-out: Anti-HIV-1 in PBMC EC50
# [8] = Table 4, extracellular DNA, untreated control 88 pg/ml, read-out: HBV virion EC50 ± SD
# [9] = Table 4, extracellular DNA, untreated control 88 pg/ml, read-out: HBV virion EC90 ± SD
# [10] = Table 4, replicative intermediates (intracellular DNA), untreated control 79 pg/μg cell DNA, read-out: HBV RI EC50 ± SD
# [11] = Table 4, replicative intermediates (intracellular DNA), untreated control 79 pg/μg cell DNA, read-out: HBV RI EC90 ± SD
# [12] = Table 3, HIV-2ROD2, read-out: Anti-HIV-2 in PBMC EC50
# [13] = Table 3, SIVSMM, read-out: Anti-SIV in PBMC EC50
# [14] = Table 2, extracellular DNA, untreated control 102 pg/ml, read-out: HBV virion EC50 ± SD
# [15] = Table 2, extracellular DNA, untreated control 102 pg/ml, read-out: HBV virion EC90 ± SD
# [16] = Table 2, replicative intermediates (intracellular DNA), untreated control 87 pg/μg cell DNA, read-out: HBV RI EC50 ± SD
# [17] = Table 2, replicative intermediates (intracellular DNA), untreated control 87 pg/μg cell DNA, read-out: HBV RI EC90 ± SD
compound,measurement,setting,value
"5-carboxylic acid amide-2′,3′-dideoxy-3′-thiacytidine [C Carboxamide (±)-β-DL]",IC50,CEM cells; Table 1,> 100 µM
same,toxicity (no toxicity up to),various cell lines; various cell lines,> 100 µM
same,EC50,"HIV-1 (strain LAV); HIV-1 in PBM cells, read-out: median effective concentration (antiviral activity)",0.77 µM
same,IC50,[1]; [5],> 100 µM
same,EC50,HSV-1F,> 100 µM
same,IC50,Vero cells; Table 1,> 100 µM
COC(=O)c1cn([C@@H]2CS[C@H](CO)O2)c(=O)[nH]c1=O (racemic) [U Methoxycarbonyl (±)-β-DL],IC50,CEM cells; Table 1,> 100 µM
same,EC50,HIV-1 (strain LAV); [6],> 100 µM
same,IC50,[1]; [5],> 100 µM
same,EC50,HSV-1F,> 100 µM
same,IC50,Vero cells; Table 1,> 100 µM
"Nc1nc(=O)n([C@@H]2CS[C@H](CO)O2)cc1F [β-L-FTC, (−)-cis-2-hydroxymethyl-5-(5-fluorocytosin-1-yl)-1,3-oxathiolane, reference compound]",EC50,"[2]; Hepatitis B virus, HepG2 2.2.15, 216 h, Table 2, extracellular DNA, untreated control 102 pg/ml, read-out: HBV virion EC50 ± SD",0.04 ± 0.006 µM
same,EC90,"[2]; Hepatitis B virus, HepG2 2.2.15, 216 h, Table 2, extracellular DNA, untreated control 102 pg/ml, read-out: HBV virion EC90 ± SD",1.1 ± 0.1 µM
same,EC50,"[2]; Hepatitis B virus, HepG2 2.2.15, 216 h, Table 2, replicative intermediates (intracellular DNA), untreated control 87 pg/μg cell DNA, read-out: HBV RI EC50 ± SD",0.16 ± 0.01 µM
same,EC90,"[2]; Hepatitis B virus, HepG2 2.2.15, 216 h, Table 2, replicative intermediates (intracellular DNA), untreated control 87 pg/μg cell DNA, read-out: HBV RI EC90 ± SD",0.39 ± 0.22 µM
same,Selectivity Index IC50/EC90 RI,[2]; Table 2,"1,913"
same,Selectivity Index IC50/EC90 Virion,[2]; Table 2,678
same,IC50,[3],746 ± 33 µM
"Nc1nc2c(ncn2COCCO)c(=O)[nH]1 [Acyclovir, reference compound]",EC50,"HSV-1F; Human alphaherpesvirus 1, Vero",0.04 µM
"Nc1nc(=O)n([C@@H]2C=C[C@H](CO)O2)cc1F [L-F-D4C, β-L-2′,3′-didehydro-2′,3′-dideoxy-5-fluoro-cytidine]",IC50,CEM cells; Table 3,7.3 µM
same,"toxicity, in words",various cell lines,relatively nontoxic
same,EC50,HIV-1 (strain LAV); [7],0.0015 µM
same,"antiviral activity against HIV, in words",HIV-1 (strain LAV),significant activity against HIV
same,IC50,[1]; Table 3,> 100 µM
same,EC50,[2]; [8],0.28 ± 0.03 µM
same,EC90,[2]; [9],0.41 ± 0.04 µM
same,EC50,[2]; [10],0.33 ± 0.04 µM
same,EC90,[2]; [11],0.75 ± 0.07 µM
same,IC50,[4]; Table 4,> 3 µM
same,IC50,Vero cells; Table 3,40.3 µM
same,EC50,HIV-2ROD2; [12],0.0006 µM
same,EC50,SIVSMM; [13],0.00015 µM
"NC(=O)c1cn([C@@H]2CS[C@H](CO)O2)c(=O)nc1N [C Carboxamide (−)-β-L, 5-carboxylic acid amide-2′,3′-dideoxy-3′-thiacytidine]",IC50,CEM cells; Table 1,> 100 µM
same,EC50,HIV-1 (strain LAV); [6],3.6 µM
same,IC50,[1]; [5],> 100 µM
same,EC50,[2]; [14],0.29 ± 0.02 µM
same,EC90,[2]; [15],1.5 ± 0.2 µM
same,EC50,[2]; [16],1.3 ± 0.1 µM
same,EC90,[2]; [17],9.9 ± 0.8 µM
same,"activity against HBV, in words",[2],significant activity against HBV
same,"toxicity, in words",[4],relatively nontoxic
same,IC50,[4]; Table 2,1750 ± 212 µM
same,IC50,Vero cells; Table 1,> 100 µM
same,EC50,"HIV-2ROD2; Table 1 footnote b, read-out: EC50 against HIV-2ROD2",1.6 µM
same,EC50,"SIVSMM; Table 1 footnote b, read-out: EC50 against SIVSMM",4 µM
"5-carboxylic acid amide-2′,3′-dideoxy-3′-thiacytidine [C Carboxamide (+)-β-D]",EC50,HIV-1 (strain LAV); [6],8.5 µM
same,EC50,[2]; [14],0.11 ± 0.012 µM
same,EC90,[2]; [15],0.9 ± 0.1 µM
same,EC50,[2]; [16],0.5 ± 0.04 µM
same,EC90,[2]; [17],3.8 ± 0.3 µM
same,"activity against HBV, in words",[2],significant activity against HBV
same,"toxicity, in words",[4],relatively nontoxic
same,IC50,[4]; Table 2,1120 ± 72 µM
"Nc1ccn([C@@H]2C=C[C@H](CO)O2)c(=O)n1 [L-D4C, β-L-2′,3′-didehydro-2′,3′-dideoxy-cytidine]",IC50,CEM cells; Table 3,0.73 µM
same,"toxicity, in words",various cell lines,relatively nontoxic
same,EC50,HIV-1 (strain LAV); [7],0.0058 µM
same,"antiviral activity against HIV, in words",HIV-1 (strain LAV),significant activity against HIV
same,IC50,[1]; Table 3,> 100 µM
same,EC50,[2]; [8],0.15 ± 0.02 µM
same,EC90,[2]; [9],0.33 ± 0.04 µM
same,EC50,[2]; [10],0.91 ± 0.09 µM
same,EC90,[2]; [11],2.3 ± 0.3 µM
same,IC50,[4]; Table 4,1040 ± 92 µM
same,IC50,Vero cells; Table 3,10.8 µM
same,EC50,HIV-2ROD2; [12],0.033 µM
same,EC50,SIVSMM; [13],0.048 µM
"Nc1ccn([C@@H]2CS[C@H](CO)O2)c(=O)n1 (single isomer, unassigned) [3TC, (−)-enantiomer of 2-hydroxymethyl-5-(cytosin-1-yl)-1,3-oxathiolane, reference compound]",IC50,CEM cells; Table 1,> 100 µM
same,IC50,CEM cells; Table 3,> 100 µM
same,EC50,HIV-1 (strain LAV); [6],0.002 µM
same,EC50,HIV-1 (strain LAV); [7],0.002 µM
same,IC50,[1]; [5],> 100 µM
same,IC50,[1]; Table 3,> 100 µM
same,EC50,HSV-1F,> 100 µM
same,IC50,Vero cells; Table 1,> 100 µM
same,IC50,Vero cells; Table 3,> 100 µM
same,EC50,HIV-2ROD2; [12],0.02 µM
same,EC50,SIVSMM; [13],0.02 µM
